Data published in ChEMBL document CHEMBL1201862, “PubChem BioAssay data set” (2004).
“And” between values parts separate entries of the source, which are not always exact repeats. Identical values can stand only once.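 Growth conditions: 96-well plates. Treatment: test compound, 48 hours, 5 concentrations. Analysis: linear interpolation between bracketing concentrations; unreached endpoints set to highest concentration. Here, GI50 denotes the concentration required for 50% inhibition of growth.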 The source made the active and inactive calls. Cut-off read from the data, not from the text of the source: active = GI50 up to about 1.1 µM and inactive = higher. Where a SMILES comes first, the peptide text is derived from it.

Tests used:
Experiment in all cases: NCI anticancer screen, dose series, 48 h
SK-MEL-28 = system: SK-MEL-28
SR = system: SR
LOX IMVI = system: LOX IMVI
T47D = system: T47D
UACC-257 = system: UACC-257
NCI-H226 = system: NCI-H226
HCC 2998 = system: HCC 2998
OVCAR-5 = system: OVCAR-5
HL-60 = system: HL-60
RPMI-8226 = system: RPMI-8226
NCI-H460 = system: NCI-H460
RXF 393 = system: RXF 393
HOP-62 = system: HOP-62
K562 = system: K562
OVCAR-8 = system: OVCAR-8
SK-MEL-5 = system: SK-MEL-5
SNB-75 = system: SNB-75
UACC-62 = system: UACC-62
HT-29 = system: HT-29
MOLT-4 = system: MOLT-4

Measured: GI50

Cn1cnc([N+](=O)[O-])c1Sc1nc(N)nc2c1ncn2Cc1ccccc1
inactive: SK-MEL-28 20.5 µM | SR 17.9 µM | LOX IMVI 19.6 µM | T47D 13.8 µM | UACC-257 14.3 µM | NCI-H226 23.9 µM | HCC 2998 15.9 µM | OVCAR-5 23.2 µM | HL-60 18.9 µM | RPMI-8226 19 µM | NCI-H460 17.8 µM | RXF 393 19.5 µM | HOP-62 19.7 µM | K562 20.5 µM | OVCAR-8 18.1 µM | SK-MEL-5 19 µM | SNB-75 20.4 µM | UACC-62 16.3 µM | HT-29 22.5 µM

Cn1nnc2c3c(N(CCO)CCO)ccnc3ccc21
inactive: SR 19.1 µM | LOX IMVI > 100 µM | T47D 59.3 µM | UACC-257 > 100 µM | HCC 2998 29.7 µM | OVCAR-5 > 100 µM | HL-60 > 10 µM | NCI-H460 39.9 µM | RXF 393 > 100 µM | HOP-62 47.2 µM | K562 > 100 µM | OVCAR-8 > 100 µM | MOLT-4 47.4 µM | SK-MEL-5 > 100 µM | SNB-75 > 100 µM | UACC-62 > 100 µM | HT-29 89.3 µM

CC(=O)OC1=C(CC(C)(C)C)C(=O)c2ccccc2C1=O
inactive: SK-MEL-28 42.4 µM | SR 20.5 µM | LOX IMVI 47.5 µM | T47D 44.2 µM | UACC-257 38.5 µM | NCI-H226 19.8 µM | HCC 2998 40.2 µM | HL-60 16 µM | RPMI-8226 17.1 µM | NCI-H460 25 µM | RXF 393 28.3 µM | HOP-62 35.2 µM | K562 18.5 µM | OVCAR-8 27.2 µM | SK-MEL-5 15.9 µM | SNB-75 27.4 µM | UACC-62 32.1 µM | HT-29 33.7 µM

N#Cc1c(N)c(C#N)c2c(c1-c1ccc(Cl)cc1)COc1ccccc1-2
inactive: SK-MEL-28 16.5 µM | SR 11.4 µM | LOX IMVI 29.7 µM | T47D 18.8 µM | UACC-257 44.1 µM | NCI-H226 32.1 µM | HCC 2998 17.4 µM | OVCAR-5 24.9 µM | HL-60 25.4 µM | RPMI-8226 3.27 µM | NCI-H460 30.3 µM | RXF 393 15.4 µM | HOP-62 14.9 µM | K562 16.5 µM | MOLT-4 11.4 µM | SK-MEL-5 22 µM | UACC-62 30.1 µM | HT-29 13.2 µM

Cc1cc2nc(C=C(C(F)(F)F)C(F)(F)F)oc2cc1C
inactive: SK-MEL-28 > 10 µM | SR 2.22 µM | LOX IMVI 2.09 µM | T47D 2.94 µM | UACC-257 > 10 µM | HCC 2998 3.08 µM | OVCAR-5 3.04 µM | HL-60 2.03 µM | RPMI-8226 1.55 µM | NCI-H460 3.92 µM | RXF 393 2.49 µM | HOP-62 3.83 µM | K562 2.25 µM | OVCAR-8 2.46 µM | MOLT-4 1.85 µM | SK-MEL-5 > 10 µM | SNB-75 4.55 µM | UACC-62 3.32 µM | HT-29 3.04 µM

Cc1cc2[nH]c3[nH]c(=O)[nH]c(=O)c3c2cc1C
inactive: SR 27.1 µM | LOX IMVI > 100 µM | T47D > 100 µM | UACC-257 > 100 µM | NCI-H226 > 100 µM | HCC 2998 > 100 µM | OVCAR-5 > 100 µM | HL-60 > 10 µM | RPMI-8226 > 100 µM | RXF 393 > 100 µM | HOP-62 29 µM | OVCAR-8 > 100 µM | SK-MEL-5 47.1 µM | SNB-75 > 100 µM | UACC-62 97.1 µM | HT-29 > 100 µM

CC(=O)OCC1OC(n2c(C)c(C(C)=O)c(-c3ccco3)c(C#N)c2=S)C(OC(C)=O)C(OC(C)=O)C1OC(C)=O (stereo not drawn)
inactive: SK-MEL-28 > 100 µM | SR > 100 µM | LOX IMVI 64.3 µM | T47D > 100 µM | UACC-257 > 100 µM | NCI-H226 > 100 µM | HCC 2998 > 100 µM | OVCAR-5 > 100 µM | HL-60 > 100 µM | NCI-H460 > 100 µM | RXF 393 > 100 µM | HOP-62 > 100 µM | K562 > 100 µM and 51.1 µM | OVCAR-8 > 100 µM | MOLT-4 60 µM | SK-MEL-5 78.5 µM | UACC-62 > 100 µM | HT-29 > 100 µM

COc1ccc(C(=O)N2CCN(c3ccc4[nH]c(=O)oc4c3)CC2)cc1
inactive: SK-MEL-28 > 100 µM | SR 92.5 µM | LOX IMVI > 100 µM | T47D > 100 µM | UACC-257 > 100 µM | NCI-H226 > 100 µM | HCC 2998 > 100 µM | OVCAR-5 > 100 µM | HL-60 39.4 µM | RPMI-8226 > 100 µM | NCI-H460 > 100 µM | HOP-62 > 100 µM | OVCAR-8 > 100 µM | MOLT-4 > 100 µM | SK-MEL-5 > 100 µM | SNB-75 62.4 µM | UACC-62 99.3 µM | HT-29 > 100 µM

CC(C)(C)c1ccc(-c2nc3ccccc3c(=O)o2)cc1
inactive: SK-MEL-28 42.5 µM | SR 22.5 µM | LOX IMVI 18.7 µM | T47D 39.8 µM | UACC-257 81.3 µM | HCC 2998 54.8 µM | OVCAR-5 44.2 µM | HL-60 23.1 µM | RPMI-8226 25.5 µM | NCI-H460 33.3 µM | RXF 393 95.9 µM | HOP-62 31.8 µM | K562 35.6 µM | OVCAR-8 47.4 µM | MOLT-4 20.4 µM | SK-MEL-5 17 µM | SNB-75 24 µM | UACC-62 30.3 µM | HT-29 42 µM

CC(C)CC(NC(=O)C(Cc1ccccc1)NC(=O)C(Cc1c[nH]c2ccccc12)NC(=O)CNC(=O)C(N)Cc1ccc(O)cc1)C(=O)O (stereo not drawn) (H-YGWFL-OH; configuration not given here)
inactive: SK-MEL-28 95.3 µM | SR 32.4 µM | T47D 25.6 µM | UACC-257 41.2 µM | NCI-H226 46.8 µM | HCC 2998 34.3 µM | OVCAR-5 > 100 µM | HL-60 24.3 µM | RPMI-8226 24.5 µM | NCI-H460 44.4 µM | RXF 393 40.3 µM | HOP-62 46.5 µM | OVCAR-8 46.5 µM | MOLT-4 59.7 µM | SK-MEL-5 29 µM | SNB-75 30.8 µM | UACC-62 67.3 µM | HT-29 30.8 µM

C=C(C)[C@H]1C2=CC(C)=C(O2)[C@@H](O)[C@H](C(=C)C)CCC2=C[C@H]1OC2=O [KALLOLIDE A]
inactive: SK-MEL-28 > 100 µM | SR 99.5 µM | LOX IMVI > 100 µM | T47D > 100 µM | UACC-257 > 100 µM | NCI-H226 > 100 µM | HCC 2998 > 100 µM | OVCAR-5 > 100 µM | HL-60 > 100 µM | RPMI-8226 > 100 µM | NCI-H460 > 100 µM | RXF 393 > 100 µM | K562 > 100 µM | OVCAR-8 > 100 µM | MOLT-4 > 100 µM | SK-MEL-5 > 100 µM | SNB-75 > 100 µM | UACC-62 > 100 µM
